{"source": "patent US6302119A", "about": "“Low odor permanent waving compositions containing a disulfide” (priority 1999, dated 2001)", "key": {"[1]": {"experiment": "Odor evaluation by 3-4 panelists of activator, waving composition and hair tresses", "details": "for Odor rating of waving composition (with activator): GMT alone 3.6; for Odor of hair rating: GMT alone 2.8; for Odor rating of activator (GMT + additive): GMT alone 3.8; for odor effect: additive in GMT, concentration not specified", "experimental": "The disulfide or thiol additive was added in the concentration indicated in Tables 3 and 4, to 200 g of neat glyceryl monothioglycolate (GMr) in a 250 mL beaker.\nOdor evaluation was conducted by 3-4 panelists who rated the odors on a scale of 1-5 where 1=no malodor and 5=extreme malodor. […] To this solution was added two tresses of dark brown, virgin hair (1 inch wide, 6 inches long), that had been washed with a 10% solution of SLS and soaked in synthetic sweate^8 at 37° C. for 17 hr, then lightly rinsed. The beaker containing the GMT activator was covered with foil and was allowed to sit for 5 to 10 minutes prior to odor evaluation. The tresses were then allowed to process in the wave composition for 20 minutes at room temperature in a covered beaker. The tresses were rinsed with tap water, towel blotted, then added to 80 mL of Matrix Opticurl Rebonding Neutralizer and processed for 5 minutes. After rinsing, the damp hair was evaluated for odor.\n8. Recipe for synthetic sweat: 10 g sodium chloride, 1 g potassium hydrogen phosphate, 0.25 g histidine, lactic acid to adjust pH to 3.2 and water to make 1 L."}, "[2]": {"details": "cited from earlier work; for waving performance: compared to TGA where stated; for odor: permanent wave"}, "[3]": {"details": "in vivo; cited from earlier work"}, "[4]": {"details": "gas chromatography; waving compositions; cited from earlier work"}, "[5]": {"details": "thiol; cited from earlier work"}, "[6]": {"details": "0.005 wt % in GMT, scale 1-5, 1 = no malodor"}, "[7]": {"details": "0.005 wt % in GMT, scale 1-5, 1 = no malodor, damp hair after neutralizer"}, "[8]": {"details": "0.005 wt % in GMT, scale 1 = no malodor, 5 = extreme malodor, average of 3-4 panelists"}, "[9]": {"details": "0.01 wt % in GMT, scale 1-5, 1 = no malodor"}, "[10]": {"details": "0.1 wt % in GMT, scale 1-5, 1 = no malodor"}}, "note": "“Also recorded” adds a separate entry of the source."}
{"smiles": "CCCCOC(=O)CSSCC(=O)OCCCC", "note": "[di-n-butyldithiodiglycolate]", "values": [{"measurement": "Odor rating of waving composition (with activator)", "setting": "[1]; [6]", "value": 2.0}, {"measurement": "Odor of hair rating", "setting": "[1]; [7]", "value": 3.5}, {"measurement": "Odor rating of activator (GMT + additive)", "setting": "[1]; [8]", "value": 2.0}, {"measurement": "Odor of hair rating", "setting": "[1]; [9]", "value": 4}, {"measurement": "Odor rating of waving composition (with activator)", "setting": "[1]; [9]", "value": 3.8}, {"measurement": "Odor rating of activator (GMT + additive)", "setting": "[1]; [9]", "value": 2.8}, {"measurement": "odor effect", "setting": "[1]; listed as Di-butyldithiodiglycolate", "value": "effectively lowers odor in the activator and in the waving composition"}, {"measurement": "odor effect", "setting": "[1]; listed as dibutyldithioglycolate", "value": "less of an odor reducing effect compared to di-i-octyldithiodiglycolate"}, {"measurement": "post-perm odor on hair", "setting": "[1]; vs original GMT odor", "value": "leave a sulfur malodor on the hair that is more disagreeable than the original GMT odor"}]}
{"smiles": "O=C(O)CS", "note": "[thioglycolic acid]", "values": [{"measurement": "waving performance", "setting": "[2]", "value": "good performance"}, {"measurement": "odor", "setting": "[2]", "value": "unpleasant odor"}, {"measurement": "toxicology / mildness", "setting": "[3]", "value": "good toxicology"}]}
{"smiles": "CC(S)C(=O)O", "note": "(centres unmarked) [Thiolactic acid]", "values": [{"measurement": "waving performance", "setting": "[2]", "value": "less efficient than TGA"}, {"measurement": "toxicology / mildness", "setting": "[3]", "value": "milder on the epidermis"}]}
{"smiles": "CC(C)CCCCCOC(=O)CSSCC(=O)OCCCCCC(C)C", "note": "[di-i-octyldithiodiglycolate]", "values": [{"measurement": "odor reduction", "setting": "[1]; 0.005%", "value": "removed the sulfur odor from GMT without adding the petroleum odor of the disulfide; also recorded: better than those were from the i-octylthioglycolate; also recorded: the waving composition and the hair smell more neutral, and less chemical than the other solutions; also recorded: essentially no odor left on the hair"}, {"measurement": "panelist preference vs GMT alone, formulation odor and post-perm hair odor", "setting": "[1]; 0.005% in GMT, duplicate experiments", "value": "all panelists preferred the GMT containing 0.005% disulfide compared to GMT alone"}, {"measurement": "Odor rating of waving composition (with activator)", "setting": "[1]; [6]", "value": 2.1}, {"measurement": "Odor of hair rating", "setting": "[1]; [7]", "value": 1.1}, {"measurement": "Odor rating of activator (GMT + additive)", "setting": "[1]; [8]", "value": 2.2}, {"measurement": "odor reduction / odor detected", "setting": "[1]; 0.01%", "value": "comparable odor results; also recorded: petroleum-like sulfur smell of the disulfide itself"}, {"measurement": "Odor of hair rating", "setting": "[1]; [9]", "value": 1.8}, {"measurement": "Odor rating of waving composition (with activator)", "setting": "[1]; [9]", "value": 3.0}, {"measurement": "Odor rating of activator (GMT + additive)", "setting": "[1]; [9]", "value": 2.5}, {"measurement": "Odor of hair rating", "setting": "[1]; [10]", "value": 2.8}, {"measurement": "Odor rating of waving composition (with activator)", "setting": "[1]; [10]", "value": 2.3}, {"measurement": "Odor rating of activator (GMT + additive)", "setting": "[1]; [10]", "value": 2.5}, {"measurement": "odor effect", "setting": "[1]", "value": "reduces the thiol odor associated with a GMT wave in all three categories evaluated"}]}
{"smiles": "O=C(O)CS", "note": "[ammonium thioglycolate]", "values": [{"measurement": "hydrogen sulfide in headspace", "setting": "[4]", "value": "ppm levels"}]}
{"smiles": "NCCS", "note": "[Cysteamine]", "values": [{"measurement": "pKa", "setting": "[5]", "value": 8.6}, {"measurement": "odor", "setting": "[2]", "value": "likened to burnt popcorn or corn chips"}]}
{"smiles": "CCCCCCCSSCCCCCCC", "note": "[di-n-heptyldisulfide, di-n-heptyl disulfide]", "values": [{"measurement": "Odor rating of waving composition (with activator)", "setting": "[1]; [6]", "value": 5}, {"measurement": "Odor rating of activator (GMT + additive)", "setting": "[1]; [8]", "value": 5}, {"measurement": "Odor rating of waving composition (with activator)", "setting": "[1]; [9]", "value": 5}, {"measurement": "Odor rating of activator (GMT + additive)", "setting": "[1]; [9]", "value": 5}, {"measurement": "odor effect", "setting": "[1]", "value": "increased malodor compared to non-disulfide containing formulations"}, {"measurement": "odor effect", "setting": "[1]; listed as diheptyldisulfide", "value": "produces an odor itself that is more disagreeable than the GMT odor alone"}]}
{"smiles": "N[C@@H](CS)C(=O)O", "note": "[cysteine]", "values": [{"measurement": "waving performance", "setting": "[2]", "value": "produces weaker curls than TGA"}, {"measurement": "skin irritation", "setting": "[3]", "value": "is an irritant"}]}
{"smiles": "O=C(CS)OCC(O)CO", "note": "(centres unmarked) [GMT, Glyceryl monothioglycolate]", "values": [{"measurement": "pKa", "setting": "[5]", "value": 7.8}, {"measurement": "odor", "setting": "[2]", "value": "more pronounced from GMT (glyceryl monothioglycolate) acid waves, than from ATG (ammonium thioglycolate) alkaline waves"}, {"measurement": "skin irritation", "setting": "[3]", "value": "causes skin irritation in some people"}]}
